Results from ChEMBL document CHEMBL4138175, “Newly designed organotin(IV) carboxylates with peptide linkage: Synthesis, structural elucidation, physicochemical characterizations and pharmacological investigations” (Eur J Med Chem, 2018).
Activity calls are given as the source filed them. The calls are words filed in the database; no cut-off is given here.

Legend:
Klebsiella pneumoniae [1] = test: Antibacterial activity against Klebsiella pneumoniae assessed as zone of inhibition after 24 to 48 hrs by well diffusion method; format: functional
Streptococcus pyogenes = test: Antibacterial activity against Streptococcus pyogenes assessed as zone of inhibition after 24 to 48 hrs by well diffusion method; format: functional
[2] = tested on: Staphylococcus epidermidis; test: Antibacterial activity against Staphylococcus epidermidis assessed as zone of inhibition after 24 to 48 hrs by well diffusion method; format: functional
Staphylococcus aureus [3] = test: Antibacterial activity against Staphylococcus aureus assessed as zone of inhibition after 24 to 48 hrs by well diffusion method; format: functional
Serratia marcescens [4] = test: Antibacterial activity against Serratia marcescens assessed as zone of inhibition after 24 to 48 hrs by well diffusion method; format: functional
Pseudomonas aeruginosa [5] = test: Antibacterial activity against Pseudomonas aeruginosa assessed as zone of inhibition after 24 to 48 hrs by well diffusion method; format: functional
Escherichia coli [6] = test: Antibacterial activity against Escherichia coli assessed as zone of inhibition after 24 to 48 hrs by well diffusion method; format: functional
NCI-H157 [7] = test: Cytotoxicity against human NCI-H157 cells at 100 uM after 48 hrs by sulforhodamine B assay; format: functional
NCI-H157 [8] = test: Cytotoxicity against human NCI-H157 cells at 10 uM after 48 hrs by sulforhodamine B assay; format: functional
NCI-H157 [9] = test: Cytotoxicity against human NCI-H157 cells at 1 uM after 48 hrs by sulforhodamine B assay; format: functional
NCI-H157 [10] = test: Cytotoxicity against human NCI-H157 cells at 0.1 uM after 48 hrs by sulforhodamine B assay; format: functional
Leishmania major [11] = test: Antileishmanial activity against Leishmania major promastigotes at 100 uM after 72 hrs by MTT assay relative to control; format: functional
Leishmania major [12] = test: Antileishmanial activity against Leishmania major promastigotes at 10 uM after 72 hrs by MTT assay relative to control; format: functional
Leishmania major [13] = test: Antileishmanial activity against Leishmania major promastigotes at 1 uM after 72 hrs by MTT assay relative to control; format: functional
Leishmania major [14] = test: Antileishmanial activity against Leishmania major promastigotes at 0.1 uM after 72 hrs by MTT assay relative to control; format: functional
Klebsiella pneumoniae [15] = test: Antibacterial activity against Klebsiella pneumoniae assessed as zone of inhibition by measuring activity index after 24 to 48 hrs by well diffusion method relative to tetracycline; format: functional, organism-based
Klebsiella pneumoniae [16] = test: Antibacterial activity against Klebsiella pneumoniae assessed as zone of inhibition by measuring activity index after 24 to 48 hrs by well diffusion method relative to ampicillin; format: functional, organism-based
Klebsiella pneumoniae [17] = test: Antibacterial activity against Klebsiella pneumoniae assessed as zone of inhibition by measuring activity index after 24 to 48 hrs by well diffusion method relative to amoxicillin; format: functional, organism-based
[18] = tested on: Staphylococcus epidermidis; test: Antibacterial activity against Staphylococcus epidermidis assessed as zone of inhibition by measuring activity index after 24 to 48 hrs by well diffusion method relative to tetracycline; format: functional, organism-based
[19] = tested on: Staphylococcus epidermidis; test: Antibacterial activity against Staphylococcus epidermidis assessed as zone of inhibition by measuring activity index after 24 to 48 hrs by well diffusion method relative to amoxicillin; format: functional, organism-based
Serratia marcescens [20] = test: Antibacterial activity against Serratia marcescens assessed as zone of inhibition by measuring activity index after 24 to 48 hrs by well diffusion method relative to penicillin G; format: functional
Serratia marcescens [21] = test: Antibacterial activity against Serratia marcescens assessed as zone of inhibition by measuring activity index after 24 to 48 hrs by well diffusion method relative to ampicillin; format: functional
Serratia marcescens [22] = test: Antibacterial activity against Serratia marcescens assessed as zone of inhibition by measuring activity index after 24 to 48 hrs by well diffusion method relative to amoxicillin; format: functional
Pseudomonas aeruginosa [23] = test: Antibacterial activity against Pseudomonas aeruginosa assessed as zone of inhibition by measuring activity index after 24 to 48 hrs by well diffusion method relative to tetracycline; format: functional, organism-based
Pseudomonas aeruginosa [24] = test: Antibacterial activity against Pseudomonas aeruginosa assessed as zone of inhibition by measuring activity index after 24 to 48 hrs by well diffusion method relative to penicillin G; format: functional, organism-based
Pseudomonas aeruginosa [25] = test: Antibacterial activity against Pseudomonas aeruginosa assessed as zone of inhibition by measuring activity index after 24 to 48 hrs by well diffusion method relative to amoxicillin; format: functional, organism-based
Escherichia coli [26] = test: Antibacterial activity against Escherichia coli assessed as zone of inhibition by measuring activity index after 24 to 48 hrs by well diffusion method relative to tetracycline; format: functional
NCI-H157 [27] = test: Cytotoxicity against human NCI-H157 cells after 48 hrs by sulforhodamine B assay; format: functional, cell-based
Pseudomonas aeruginosa [28] = test: Antibacterial activity against Pseudomonas aeruginosa assessed as zone of inhibition by measuring activity index after 24 to 48 hrs by well diffusion method relative to ampicillin; format: functional, organism-based
Klebsiella pneumoniae [29] = test: Antibacterial activity against Klebsiella pneumoniae assessed as zone of inhibition by measuring activity index after 24 to 48 hrs by well diffusion method relative to penicillin G; format: functional, organism-based
Staphylococcus aureus [30] = test: Antibacterial activity against Staphylococcus aureus assessed as zone of inhibition by measuring activity index after 24 to 48 hrs by well diffusion method relative to tetracycline; format: functional, organism-based
Staphylococcus aureus [31] = test: Antibacterial activity against Staphylococcus aureus assessed as zone of inhibition by measuring activity index after 24 to 48 hrs by well diffusion method relative to penicillin G; format: functional, organism-based
Staphylococcus aureus [32] = test: Antibacterial activity against Staphylococcus aureus assessed as zone of inhibition by measuring activity index after 24 to 48 hrs by well diffusion method relative to ampicillin; format: functional, organism-based
Staphylococcus aureus [33] = test: Antibacterial activity against Staphylococcus aureus assessed as zone of inhibition by measuring activity index after 24 to 48 hrs by well diffusion method relative to amoxicillin; format: functional, organism-based
DNA [34] = test: Binding affinity to single-stranded DNA (unknown origin) after 10 mins by UV-visible spectrometric method; format: nucleic-acid assay
DNA [35] = test: Binding affinity to single-stranded DNA (unknown origin) assessed as red shift up to 72 uM after 10 mins by UV-visible spectrometric method; format: nucleic-acid assay

| Compound | inhibition zone (IZ) (Klebsiella pneumoniae [1]) | inhibition zone (IZ) (Streptococcus pyogenes) | inhibition zone (IZ) [2] | inhibition zone (IZ) (Staphylococcus aureus [3]) | inhibition zone (IZ) (Serratia marcescens [4]) | inhibition zone (IZ) (Pseudomonas aeruginosa [5]) | inhibition zone (IZ) (Escherichia coli [6]) | Activity (NCI-H157 [7]) | Activity (NCI-H157 [8]) | Activity (NCI-H157 [9]) | Activity (NCI-H157 [10]) | Activity (Leishmania major [11]) | Activity (Leishmania major [12]) | Activity (Leishmania major [13]) | Activity (Leishmania major [14]) | Activity index [18] | Activity index [19] | Activity index (Serratia marcescens [20]) | Activity index (Serratia marcescens [21]) | Activity index (Serratia marcescens [22]) | also measured |
| --- | --- | --- | --- | --- | --- | --- | --- | --- | --- | --- | --- | --- | --- | --- | --- | --- | --- | --- | --- | --- | --- |
| CC1(C)S[C@@H]2[C@H](NC(=O)Cc3ccccc3)C(=O)N2[C@H]1C(=O)O [PENICILLIN G] | 0 mm | 0 mm | 0 mm | 0 mm | 8 mm | 6 mm | 0 mm | – | – | – | – | – | – | – | – | – | – | – | – | – | – |
| CN(C)[C@@H]1C(O)=C(C(N)=O)C(=O)[C@@]2(O)C(O)=C3C(=O)c4c(O)cccc4[C@@](C)(O)[C@H]3C[C@@H]12 [TETRACYCLINE] | 14 mm | 0 mm | 10 mm | 0 mm | 0 mm | 6 mm | 2 mm | – | – | – | – | – | – | – | – | – | – | – | – | – | – |
| Dibenzylstannanediyl bis 2-(4-methoxy-2-nitrophenylcarbamoyl)benzoate | 15 mm | 10.7 mm | 11 mm | 10.7 mm | 7.66 mm | 14.3 mm | 9 mm | 74.5% | 71.3% | 67.4% | 62.7% | 72.4% | 66.3% | 62.5% | 60.9% | 1.1 | 5.5 | 0.96 | 0.96 | 1.28 | Activity index (Klebsiella pneumoniae [15]): 1.07; Activity index (Klebsiella pneumoniae [16]): 2.5; Activity index (Klebsiella pneumoniae [17]): 2.5; Activity index (Pseudomonas aeruginosa [23]): 2.39; Activity index (Pseudomonas aeruginosa [24]): 2.39; Activity index (Pseudomonas aeruginosa [25]): 2.39; Activity index (Escherichia coli [26]): 4.5; Activity (NCI-H157 [27]): Dose-dependent effect |
| Dibutylstannanediyl bis 2-(4-methoxy-2-nitrophenylcarbamoyl)benzoate | 26 mm | 6 mm | 15 mm | 24 mm | 18.3 mm | inactive | 19.3 mm | 55.5% | 52.6% | 47.4% | 43.9% | 54.2% | 50.6% | 49.6% | 47.6% | 1.5 | 7.5 | 2.29 | 2.29 | 3.05 | Activity index (Klebsiella pneumoniae [15]): 1.88; Activity index (Klebsiella pneumoniae [16]): 4.34; Activity index (Klebsiella pneumoniae [17]): 4.34; Activity_index (Pseudomonas aeruginosa [28]): inactive; Activity index (Escherichia coli [26]): 9.67; Activity (NCI-H157 [27]): Dose-dependent effect |
| C[C@@H]1[C@H](O)[C@@H](C)/C=C/C=C/C=C/C=C/C=C/C=C/C=C/[C@H](O[C@@H]2O[C@H](C)[C@@H](O)[C@H](N)[C@@H]2O)C[C@@H]2O[C@](O)(C[C@@H](O)C[C@@H](O)[C@H](O)CC[C@@H](O)C[C@@H](O)CC(=O)O[C@H]1C)C[C@H](O)[C@H]2C(=O)O [AMPHOTERICIN B] | – | – | – | – | – | – | – | – | – | – | – | 79.8% | 76.3% | 74.8% | 69.9% | – | – | – | – | – | – |
| CC1(C)S[C@@H]2[C@H](NC(=O)[C@H](N)c3ccc(O)cc3)C(=O)N2[C@H]1C(=O)O [AMOXICILLIN] | 6 mm | 0 mm | 2 mm | 0 mm | 6 mm | 6 mm | 0 mm | – | – | – | – | – | – | – | – | – | – | – | – | – | – |
| Triphenylstannyl 2-(4-methoxy-2-nitrophenylcarbamoyl)benzoate | 20.2 mm | 11.7 mm | 19 mm | 4.66 mm | 4.66 mm | 22.7 mm | 11 mm | 61.7% | 58.4% | 55.7% | 52.3% | 64.3% | 59.4% | 53.6% | 50.7% | 1.9 | 9.5 | 0.58 | 0.58 | 0.78 | Activity index (Klebsiella pneumoniae [15]): 1.44; Activity index (Klebsiella pneumoniae [16]): 3.37; Activity index (Klebsiella pneumoniae [17]): 3.37; Activity index (Pseudomonas aeruginosa [23]): 3.78; Activity index (Pseudomonas aeruginosa [24]): 3.78; Activity index (Pseudomonas aeruginosa [25]): 3.78; Activity index (Escherichia coli [26]): 5.5; Activity (NCI-H157 [27]): Dose-dependent effect |
| (2,9-Dimethyl-1,10-Phenanthroline) trimethylstannyl 2-(4-methoxy-2-nitrophenylcarbamo-yl)benzoate | inactive | 5 mm | 16 mm | inactive | 15.7 mm | 23 mm | 1.53 mm | 52.8% | 50.3% | 48.6% | 45.5% | 62.1% | 59.5% | 56.7% | 52.1% | 1.6 | 8 | 1.96 | 1.96 | 2.61 | Activity_index (Klebsiella pneumoniae [29]): inactive; Activity_index (Staphylococcus aureus [30]): inactive; Activity_index (Staphylococcus aureus [31]): inactive; Activity_index (Staphylococcus aureus [32]): inactive; Activity_index (Staphylococcus aureus [33]): inactive; Activity index (Pseudomonas aeruginosa [23]): 3.84; Activity index (Pseudomonas aeruginosa [24]): 3.84; Activity index (Pseudomonas aeruginosa [25]): 3.84; Activity index (Escherichia coli [26]): 0.77; K (DNA [34]): 2 ×10⁴ /M; Activity (NCI-H157 [27]): Dose-dependent effect; Activity (DNA [35]): < 3 nm |
| CC1(C)S[C@@H]2[C@H](NC(=O)[C@H](N)c3ccccc3)C(=O)N2[C@H]1C(=O)O [AMPICILLIN] | 6 mm | 0 mm | 0 mm | 0 mm | 8 mm | 0 mm | 0 mm | – | – | – | – | – | – | – | – | – | – | – | – | – | – |
